Publication PMC6804243, “Small-Molecule Inhibition of UBE2T/FANCL-Mediated Ubiquitylation in the Fanconi Anemia Pathway” (ACS Chemical Biology, 2019)

Tested on: T1, UBE2D1
T1 construct: His6 (N); made in house; host or cells: E. coli Rosetta (DE3)
Assay: Gel-based ubiquitylation assay (UBE2D1/GST-FANCLRING), ubiquitylated UBE2D1 species
Type: biochemical
Conditions: E2 = UBE2D1, E3 = GST-FANCLRING; 30 min at 37 °C
Method: Figure 2 Gel-based ubiquitylation assays with confirmed HTRF hits. […] Western blots (WB) probed for GST or biotin as labeled. Reactions contained 20 nM His6-UBE1, 50 nM E2, 250 nM GST-E3, 500 nM biotinylated ubiquitin: (a) E2 = UBE2T, E3 = GST-FANCLRING, 30 min of reaction at 37 °C; (b) E2 = UBE2D1, E3 = GST-FANCLRING, 30 min of reaction at 37 °C; and (c) E2 = UBE2D1, E3 = GST-RNF8, 10 min of reaction at 37 °C.
In order to explore the selectivity of CU1, CU2, CU9, CU10, and CU12, we conducted a counter-screen against other E2 and E3 combinations. Since members of the UBE2D family of E2s are known to ubiquitylate multiple substrates in vitro,[13] a ubiquitylation assay featuring UBE2D1 and GST-FANCLRING was performed. With UBE2D1, multiple ubiquitylated GST-FANCLRING species could be observed (Figure 2b).
Purified protein was concentrated using a Vivaspin-6 concentrator with a 10 kDa MW cut-off (Vivascience) and flash-frozen in small aliquots for storage at […]
Cy5 labelling of ubiquitin. […]
Homogeneous Time-Resolved Fluorescence (HTRF) Assay. […]
(v/v) DMSO. […] Signal was measured at λEx 340 nm and λEm 665 nm and 620 nm using a PHERAstar FS plate reader
(BMG Labtech). A ratio was calculated as [λEm(665)/λEm(620)] × 104 for each well and this was used to determine the percent inhibition for test compounds. […]

For `NC(=O)[C@@H]1CCCN1C(=O)c1cc(-n2cccc2)ccc1Cl` [CU12], the “formation of ubiquitylated UBE2D1 species” value was “prevented the formation of any ubiquitylated UBE2D1 species”.
